Measured values reported in ChEMBL document CHEMBL1201862, “PubChem BioAssay data set” (2004).
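Dose response: 5 concentrations. Exposure: 48 h. Format: 96-well plates. Endpoint: linear interpolation; highest concentration if not reached. Abbreviation: GI50, concentration required for 50% inhibition of growth.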 The source made the active and inactive calls. Cut-off read from the data, not from the text of the source: active = GI50 up to about 1.1 µM and inactive = higher.

What was measured:
Assay in all cases: NCI-60 cell line screen, 48 h
786-0 = test system: 786-0
CCRF-CEM = test system: CCRF-CEM
DU-145 = test system: DU-145
HCC 2998 = test system: HCC 2998
HCT-15 = test system: HCT-15
HT-29 = test system: HT-29
MCF7 = test system: MCF7
MDA-N = test system: MDA-N
Malme-3M = test system: Malme-3M
NCI-H226 = test system: NCI-H226
NCI-H460 = test system: NCI-H460
NCI-H522 = test system: NCI-H522
PC-3 = test system: PC-3
SN12C = test system: SN12C
SNB-19 = test system: SNB-19
SR = test system: SR
T47D = test system: T47D
TK-10 = test system: TK-10
SF-268 = test system: SF-268
RXF 393 = test system: RXF 393

Compound | GI50 (786-0) | GI50 (CCRF-CEM) | GI50 (DU-145) | GI50 (HCC 2998) | GI50 (HCT-15) | GI50 (HT-29) | GI50 (MCF7) | GI50 (MDA-N) | GI50 (Malme-3M) | GI50 (NCI-H226) | GI50 (NCI-H460) | GI50 (NCI-H522) | GI50 (PC-3) | GI50 (SN12C) | GI50 (SNB-19) | GI50 (SR) | GI50 (T47D) | GI50 (TK-10) | GI50 (SF-268) | GI50 (RXF 393)
Cn1c2ccccc2c2c3c(c4c5ccccc5n(C)c4c21)C(=O)N(Cc1ccccc1)C3=O | > 100 µM (inactive) | > 100 µM (inactive) | > 100 µM (inactive) | > 100 µM (inactive) | > 100 µM | > 100 µM (inactive) | > 100 µM (inactive) | > 100 µM (inactive) | > 100 µM (inactive) | > 100 µM (inactive) | > 100 µM (inactive) | > 100 µM (inactive) | > 100 µM (inactive) | > 100 µM (inactive) | > 100 µM (inactive) | 31.8 µM (inactive) | > 100 µM (inactive) | > 100 µM (inactive) | – | –
O=C(/C=C/c1cccs1)c1ccc([N+](=O)[O-])cc1 | > 100 µM (inactive) | > 100 µM (inactive) | > 100 µM (inactive) | > 100 µM (inactive) | > 100 µM | > 100 µM (inactive) | 61.7 µM (inactive) | > 100 µM (inactive) | > 100 µM (inactive) | 78.9 µM (inactive) | > 100 µM (inactive) | – | > 100 µM (inactive) | > 100 µM (inactive) | 94.8 µM (inactive) | 65.8 µM (inactive) | > 100 µM (inactive) | > 100 µM (inactive) | > 100 µM (inactive) | –
COc1ccc(/C=C/c2cc(OC)c(OC)c(OC)c2)cc1O[Si](C)(C)C(C)(C)C | 10.4 µM (inactive) | – | 7.11 µM (inactive) | 43.5 µM (inactive) | 3.33 µM | 37.9 µM (inactive) | 3.6 µM (inactive) | 2.27 µM (inactive) | – | 5.19 µM (inactive) | 4.15 µM (inactive) | 1.87 µM (inactive) | 4.72 µM (inactive) | 7.16 µM (inactive) | 3.44 µM (inactive) | – | 18.7 µM (inactive) | 27.1 µM (inactive) | 15.8 µM (inactive) | 3.09 µM (inactive)
CC(=O)NC1C(OCc2ccccc2)OC(CO)C(O)C1OCC(=O)N1CCCC1C(=O)N[C@@H](CCC(=O)NCCCCNc1c2ccccc2nc2cccc([N+](=O)[O-])c12)C(N)=O (stereo partly drawn) | 46.1 µM (inactive) | – | 31.8 µM (inactive) | 16.1 µM (inactive) | 42.8 µM | 16.7 µM (inactive) | 9.1 µM (inactive) | 14.8 µM (inactive) | 33.3 µM (inactive) | 74 µM (inactive) | 21 µM (inactive) | – | 18.7 µM (inactive) | 23.7 µM (inactive) | 17.7 µM (inactive) | 20.1 µM (inactive) | 27.4 µM (inactive) | 73.8 µM (inactive) | 31.6 µM (inactive) | –
O=C1CCCCCCCCCCC1CN1CCCC1 (stereo not drawn) | 20.4 µM (inactive) | 27.4 µM (inactive) | 29.9 µM (inactive) | 20 µM (inactive) | 32.8 µM | 17.9 µM (inactive) | 20.5 µM (inactive) | 33 µM (inactive) | 31.6 µM (inactive) | 15.4 µM (inactive) | 26.9 µM (inactive) | 39.3 µM (inactive) | 30.8 µM (inactive) | 41.1 µM (inactive) | > 100 µM (inactive) | – | 46.1 µM (inactive) | 32.3 µM (inactive) | 50 µM (inactive) | 15.1 µM (inactive)
Cc1cc(NS(=O)(=O)c2ccc(/N=N/c3c(Nc4ccccc4)nn(-c4ccc(S(=O)(=O)Nc5ccncn5)cc4)c3C)cc2)no1 | > 100 µM (inactive) | > 100 µM (inactive) | > 100 µM (inactive) | > 100 µM (inactive) | > 100 µM | > 100 µM (inactive) | > 100 µM (inactive) | > 100 µM (inactive) | > 100 µM (inactive) | > 100 µM (inactive) | – | > 100 µM (inactive) | > 100 µM (inactive) | > 100 µM (inactive) | > 100 µM (inactive) | – | > 100 µM (inactive) | > 100 µM (inactive) | – | –
COc1ccc(C(=O)C(Br)C(Br)C(=O)O)cc1 (stereo not drawn) | 31.8 µM (inactive) | – | 80.2 µM (inactive) | – | 37.5 µM | 15.6 µM (inactive) | 35.8 µM (inactive) | 38.1 µM (inactive) | 21.4 µM (inactive) | > 100 µM (inactive) | 36.3 µM (inactive) | 16.7 µM (inactive) | 56.5 µM (inactive) | 47.2 µM (inactive) | 83.8 µM (inactive) | – | 33.1 µM (inactive) | 90.2 µM (inactive) | 32.8 µM (inactive) | 24.2 µM (inactive)
Cc1ccccc1NC(=O)Cc1csc2[n+]1C(=O)/C(=C/c1ccc([N+](=O)[O-])cc1)S2 | 58.9 µM (inactive) | – | 53.8 µM (inactive) | 28.1 µM (inactive) | 24.3 µM | 36 µM (inactive) | 42.9 µM (inactive) | 37.2 µM (inactive) | – | 31.2 µM (inactive) | 22.1 µM (inactive) | – | 26.8 µM (inactive) | 43.4 µM (inactive) | 26.4 µM (inactive) | – | 29.2 µM (inactive) | 19.9 µM (inactive) | – | –
CC/C(Cl)=N\OC(=O)Nc1ccccc1OC(F)(F)F | 10.1 µM (inactive) | 1.75 µM (inactive) | 18.7 µM (inactive) | 18.6 µM (inactive) | 3.21 µM | 21.3 µM (inactive) | 9.12 µM (inactive) | 8.47 µM (inactive) | 4.52 µM (inactive) | 19.1 µM (inactive) | 20.7 µM (inactive) | 0.665 µM (active) | 18.1 µM (inactive) | 7.05 µM (inactive) | 22.5 µM (inactive) | – | 4.32 µM (inactive) | 11.6 µM (inactive) | 25.2 µM (inactive) | 16.7 µM (inactive)
CC(C)CCNC(=O)C(CC(C)C)NC(=O)[C@H]1O[C@@H]1C(=O)O (stereo partly drawn) | > 100 µM (inactive) | > 100 µM (inactive) | > 100 µM (inactive) | > 100 µM (inactive) | > 100 µM | > 100 µM (inactive) | > 100 µM (inactive) | > 100 µM (inactive) | > 100 µM (inactive) | > 100 µM (inactive) | > 100 µM (inactive) | > 100 µM (inactive) | > 100 µM (inactive) | > 100 µM (inactive) | > 100 µM (inactive) | – | > 100 µM (inactive) | – | > 100 µM (inactive) | –
Cc1cc(C)n(C2=NS(=O)(=O)c3ccccc3N2C)n1 | > 100 µM (inactive) | > 100 µM (inactive) | > 100 µM (inactive) | > 100 µM (inactive) | > 100 µM | > 100 µM (inactive) | > 100 µM (inactive) | > 100 µM (inactive) | – | > 100 µM (inactive) | > 100 µM (inactive) | > 100 µM (inactive) | > 100 µM (inactive) | > 100 µM (inactive) | > 100 µM (inactive) | – | > 100 µM (inactive) | > 100 µM (inactive) | > 100 µM (inactive) | > 100 µM (inactive)
Cc1ccc(-c2cc(-c3ccc(Cl)cc3)nc(/N=C3\C(=O)N(CN4CCCCC4)c4ccc(Cl)cc43)n2)cc1 | 18.9 µM (inactive) | 36.3 µM (inactive) | 37.5 µM (inactive) | 14.9 µM (inactive) | 24.4 µM | 32.3 µM (inactive) | 21.1 µM (inactive) | 21.3 µM (inactive) | 84.3 µM (inactive) | 39.4 µM (inactive) | 22.5 µM (inactive) | 12.5 µM (inactive) | 34 µM (inactive) | 25.9 µM (inactive) | 11.2 µM (inactive) | – | 29.9 µM (inactive) | 21.7 µM (inactive) | 17.9 µM (inactive) | 18.3 µM (inactive)
C[C@@H]1O[C@@H](O[C@H]2CC[C@]3(C=O)[C@H]4CC[C@]5(C)[C@@H](c6ccc(=O)oc6)CC[C@]5(O)[C@@H]4CC[C@]3(O)C2)[C@H](O)[C@H](O)[C@H]1O[C@@H]1O[C@H](CO)[C@@H](O)[C@H](O)[C@H]1O [HELLEBRIN] | 0.00451 µM (active) | 0.00445 µM (active) | 0.00265 µM (active) | 0.0365 µM (active) | 0.0375 µM | 0.0212 µM (active) | 0.0375 µM (active) | 0.0223 µM (active) | – | 0.0231 µM (active) | 0.00771 µM (active) | 0.00324 µM (active) | 0.00938 µM (active) | 0.00506 µM (active) | 0.0451 µM (active) | 0.00601 µM (active) | 0.0166 µM (active) | 0.00347 µM (active) | 0.0375 µM (active) | –
COC(=O)C1CCC(=S)N1C(=O)c1ccccc1 (stereo not drawn) | > 100 µM (inactive) | > 100 µM (inactive) | > 100 µM (inactive) | 77.6 µM (inactive) | > 100 µM | > 100 µM (inactive) | > 100 µM (inactive) | > 100 µM (inactive) | > 100 µM (inactive) | – | 40.6 µM (inactive) | > 100 µM (inactive) | > 100 µM (inactive) | – | > 100 µM (inactive) | – | > 100 µM (inactive) | > 100 µM (inactive) | > 100 µM (inactive) | > 100 µM (inactive)
CCN1CCC(O)(/C=C/c2ccc(Cl)c(Cl)c2)C(C(=O)/C=C/c2ccc(Cl)c(Cl)c2)C1 (stereo not drawn) | 1.41 µM (inactive) | 0.306 µM (active) | 1.13 µM (inactive) | 1.71 µM (inactive) | 1.89 µM | 0.689 µM (active) | 1.06 µM (active) | 1.55 µM (inactive) | 1.05 µM (active) | 1.84 µM (inactive) | 0.76 µM (active) | 0.948 µM (active) | 0.329 µM (active) | 0.873 µM (active) | 1.89 µM (inactive) | – | 0.966 µM (active) | 1.32 µM (inactive) | 1.06 µM (active) | 1.35 µM (inactive)
